Measurements: US20260015360A1 (MOMA Therapeutics, Inc., priority 2023, published 2026)

target: T1, biotinylated Avi-POLΘ[2-894] (Homo sapiens, UniProt O75417); test: ATPase assay (ADP-Glo): POLΘ-mediated ATP hydrolysis; conditions: read-out: Biochemical ATPase ADPGlo IC50
T1 construct: 1 nM biotinylated Avi-POLΘ[2-894]
T1 sequence (O75417 2-894 limits assumed): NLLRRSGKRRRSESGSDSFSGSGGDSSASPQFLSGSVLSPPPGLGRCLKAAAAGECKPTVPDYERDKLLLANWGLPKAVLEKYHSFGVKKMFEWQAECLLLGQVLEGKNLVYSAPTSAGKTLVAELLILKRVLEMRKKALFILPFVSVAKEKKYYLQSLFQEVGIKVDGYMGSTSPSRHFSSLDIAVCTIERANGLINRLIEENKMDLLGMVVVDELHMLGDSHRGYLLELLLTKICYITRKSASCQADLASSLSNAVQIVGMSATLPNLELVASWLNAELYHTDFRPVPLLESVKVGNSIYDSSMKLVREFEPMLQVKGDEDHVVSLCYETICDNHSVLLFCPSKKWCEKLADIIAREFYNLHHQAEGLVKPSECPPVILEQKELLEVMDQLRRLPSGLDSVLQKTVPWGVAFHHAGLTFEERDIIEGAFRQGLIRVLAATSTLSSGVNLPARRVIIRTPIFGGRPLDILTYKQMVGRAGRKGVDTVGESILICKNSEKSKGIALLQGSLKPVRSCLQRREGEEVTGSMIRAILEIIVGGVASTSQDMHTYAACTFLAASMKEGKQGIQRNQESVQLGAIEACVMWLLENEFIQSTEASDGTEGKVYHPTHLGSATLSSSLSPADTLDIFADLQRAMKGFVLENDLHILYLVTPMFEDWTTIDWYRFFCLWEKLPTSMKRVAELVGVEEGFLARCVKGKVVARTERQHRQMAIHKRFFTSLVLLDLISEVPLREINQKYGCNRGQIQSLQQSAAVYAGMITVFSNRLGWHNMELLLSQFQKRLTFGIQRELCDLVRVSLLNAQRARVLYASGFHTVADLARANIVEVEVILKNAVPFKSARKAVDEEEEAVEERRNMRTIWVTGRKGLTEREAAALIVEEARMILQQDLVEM

IC50 | Structure (SMILES)
150 to 900 nM | Cc1cc(N2CCN(c3nccs3)CC2)c(C(=O)Nc2nc3ncc(-c4ccncc4)cc3s2)cn1 [Example 159, 6-methyl-N-(6-(pyridin-4-yl)thiazolo[4,5-b]pyridin-2-yl)-4-(4-(thiazol-2-yl)piperazin-1-yl)nicotinamide]
150 to 900 nM | COc1ccccc1-c1cc(C)ncc1C(=O)Nc1nn2cc(C3CC3)nc2s1 [Example 168, N-(6-cyclopropylimi-dazo[2,1-b][1,3,4]thiadiazol-2-yl)-4-(2-methoxyphenyl)-6-methylnicotinamide]
> 900 nM | CC(=O)N1CC2(C1)CN(c1cc(C)ncc1C(=O)Nc1nc3ncc(-c4ccncc4)cc3s1)C2 [Example 202]
1 to 15 nM | COc1cnc(Cl)cc1-c1cc(C)ncc1C(=O)Nc1nn2cc(C3CCCCC3)nc2s1 [Example 315]
15 to 50 nM | COc1ccc(C#N)cc1-c1cc(C)ncc1C(=O)Nc1nn2cc(C(=O)N(C)C)nc2s1 [Example 316, 2-(4-(5-cyano-2-methoxyphenyl)-6-methylnicotinamido)-N,N-dimethylimidazo[2,1-b][1,3,4]thiadiazole-6-carboxamide]
15 to 50 nM | COc1cnc(Cl)cc1-c1cc(C)ncc1C(=O)Nc1nc2ncc(N3[C@H](C)COC[C@@H]3C)nc2s1 [Example 404, 2′-chloro-N-(6-((3R,5S)-3,5-dimethylmorpholino)thiazolo [4,5-b]pyrazin-2-yl)-5′-methoxy-6-methyl-[4,4′-bipyridine]-3-carboxamide]
15 to 50 nM | COc1cnc(Cl)cc1-c1cc(C)ncc1C(=O)Nc1nc2ncc(N3CCOC[C@@H]3C(F)(F)F)nc2s1 [Example 414, (R)-2′-chloro-5′-methoxy-6-methyl-N-(6-(3-(trifluoromethyl)morpholino)thiazolo[4,5-b]pyrazin-2-yl)-[4,4′-bipyridine]-3-carboxamide]
1 to 15 nM | COc1cnc(Cl)cc1-c1cc(C)ncc1C(=O)Nc1nc2ncc(N3[C@H](C)COC[C@H]3C)nc2s1 [Example 423, 2′-chloro-N-(6-((3R,5R)-3,5-dimethylmorpholino)thiazolo [4,5-b]pyrazin-2-yl)-5′-methoxy-6-methyl-[4,4′-bipyridine]-3-carboxamide]
15 to 50 nM | COc1cnc(Cl)cc1-c1cc(C)ncc1C(=O)Nc1nc2ncc(N3CCOCC3C(F)F)nc2s1 (centres unmarked) [Example 426, 2′-chloro-N-(6-(3-(difluoromethyl)morpholino)thiazolo[4,5-b]pyrazin-2-yl)-5′-methoxy-6-methyl-[4,4′-bipyridine]-3-carboxamide]
1 to 15 nM | COc1cnc(Cl)cc1-c1cc(C)ncc1C(=O)Nc1nc2ncc([C@H]3CC[C@@H](C#N)CC3)nc2s1 [Example 451, 2′-chloro-N-(6-((1s,4s)-4-cyanocyclohexyl)thiazolo[4,5-b]pyrazin-2-yl)-5′-methoxy-6-methyl-[4,4′-bipyridine]-3-carboxamide]
1 to 15 nM | COc1cnc(Cl)cc1-c1cc(C)ncc1C(=O)Nc1nc2ncc(N3CC[C@H](OC)[C@H](F)C3)nc2s1 [Example 453, 2′-chloro-N-(6-((3R,4S)-3-fluoro-4-methoxypiperidin-1-yl)thiazolo[4,5-b]pyrazin-2-yl)-5′-methoxy-6-methyl-[4,4′-bipyridine]-3-carboxamide]
15 to 50 nM | CNC1CCN(c2cnc3nc(NC(=O)c4cnc(C)cc4-c4cc(Cl)ncc4OC)sc3n2)CC1 [Example 477, 2′-chloro-5′-methoxy-6-methyl-N-(6-(4-(methylamino)piperidin-1-yl)thiazolo[4,5-b]pyrazin-2-yl)-[4,4′-bipyridine]-3-carboxamide]
1 to 15 nM | COc1cnc(Cl)cc1-c1cc(C)ncc1C(=O)Nc1nc2ncc(N3CCCC3)nc2s1 [Example 484, 2′-chloro-5′-methoxy-6-methyl-N-(6-(pyrrolidin-1-yl)thiazolo[4,5-b]pyrazin-2-yl)-[4,4′-bipyridine]-3-carboxamide]
15 to 50 nM | COc1cnc(Cl)cc1-c1cc(Oc2cccc(N)c2)ncc1C(=O)Nc1nn2cc(C3CC3)nc2s1 [Example 494, 6-(3-aminophenoxy)-2′-chloro-N-(6-cyclopropylimidazo[2,1-b][1,3,4]thiadiazol-2-yl)-5′-methoxy-[4,4′-bipyridine]-3-carboxamide]
15 to 50 nM | COc1cnc(Cl)cc1-c1cc(C)ncc1C(=O)Nc1nc2ncc(N3CC[C@H](CO)C3)nc2s1 [Example 500, (S)-2′-chloro-N-(6-(3-(hydroxymethyl)pyrrolidin-1-yl)thiazolo[4,5-b]pyrazin-2-yl)-5′-methoxy-6-methyl-[4,4'-bipyridine]-3-carboxamide]
1 to 15 nM | COc1cnc(Cl)cc1-c1cc(C)ncc1C(=O)Nc1nc2ncc(N3CC(CO)C3)nc2s1 [Example 505, 2′-chloro-N-(6-(3-(hydroxymethyl)azetidin-1-yl)thiazolo[4,5-b]pyrazin-2-yl)-5′-methoxy-6-methyl-[4,4′-bipyridine]-3-carboxamide]
15 to 50 nM | Cc1cc(-c2c3cnccc3nn2C)c(C(=O)Nc2nc3ncc(-c4ccncc4)nc3s2)cn1 [Example 513, 6-methyl-4-(2-methyl-2H-pyrazolo[4,3-c]pyridin-3-yl)-N-(6-(pyridin-4-yl)thiazolo[4,5-b]pyrazin-2-yl)nicotinamide]

The remaining lines, values behind:

Structure (SMILES) | IC50
COc1cnc(Cl)cc1-c1cc(C)ncc1C(=O)Nc1nn2cc(C(=O)N[C@H]3CC[C@@H](O)CC3)nc2s1 [Example 292] | 1 to 15 nM
COc1cnc(Cl)cc1-c1cc(C)ncc1C(=O)Nc1nc2ncc(C3(OC)CCOCC3)nc2s1 [Example 373, 2′-chloro-5′-methoxy-N-(6-(4-methoxytetrahydro-2H-pyran-4-yl)thiazolo[4,5-b]pyrazin-2-yl)-6-methyl-[4,4′-bipyridine]-3-carboxamide] | 1 to 15 nM
COc1cnc(Cl)cc1-c1cc(C)ncc1C(=O)Nc1nc2ncc(C3(O)CCOCC3)nc2s1 [Example 390, 2′-chloro-N-(6-(4-hydroxytetrahydro-2H-pyran-4-yl)thiazolo[4,5-b]pyrazin-2-yl)-5′-methoxy-6-methyl-[4,4′-bipyridine]-3-carboxamide] | 15 to 50 nM
COc1cnc(Cl)cc1-c1cc(C)ncc1C(=O)Nc1nc2ncc(N3CCO[C@H]4CCC[C@@H]43)nc2s1 [Example 393, 2′-chloro-N-(6-((4aS,7aS)-hexahydrocyclopenta[b][1,4]oxazin-4(4aH)-yl)thiazolo[4,5-b]pyrazin-2-yl)-5′-methoxy-6-methyl-[4,4′-bipyridine]-3-carboxamide] | 15 to 50 nM
COc1cnc(Cl)cc1-c1cc(C)ncc1C(=O)Nc1nc2ncc(N3CCO[C@@H]4CCC[C@@H]43)nc2s1 [Example 395, 2′-chloro-N-(6-((4aS,7aR)-hexahydrocyclopenta[b][1,4]oxazin-4(4aH)-yl)thiazolo[4,5-b]pyrazin-2-yl)-5′-methoxy-6-methyl-[4,4′-bipyridine]-3-carboxamide] | 15 to 50 nM
COc1cnc(Cl)cc1-c1cc(C)ncc1C(=O)Nc1nc2ncc(N3CCOC[C@H]3C(F)(F)F)nc2s1 [Example 416, (S)-2′-chloro-5′-methoxy-6-methyl-N-(6-(3-(trifluoromethyl)morpholino)thiazolo[4,5-b]pyrazin-2-yl)-[4,4′-bipyridine]-3-carboxamide] | 15 to 50 nM
COc1cnc(Cl)cc1-c1cc(C)ncc1C(=O)Nc1nc2ncc(N3C[C@@H](C)OC[C@@H]3C)nc2s1 [Example 419, 2′-chloro-N-(6-((2R,5S)-2,5-dimethylmorpholino)thiazolo [4,5-b]pyrazin-2-yl)-5′-methoxy-6-methyl-[4,4′-bipyridine]-3-carboxamide] | 1 to 15 nM
COc1cnc(Cl)cc1-c1cc(C)ncc1C(=O)Nc1nc2ncc(N3CCOC(C)C3C)nc2s1 (centres unmarked) [Example 425, 2′-chloro-N-(6-(2,3-dimethylmorpholino)thiazolo [4,5-b]pyrazin-2-yl)-5′-methoxy-6-methyl-[4,4′-bipyridine]-3-carboxamide] | 1 to 15 nM
COc1cnc(Cl)cc1-c1cc(C)ncc1C(=O)Nc1nc2ncc(N3C[C@@H](C)O[C@@H](C)C3)nc2s1 [Example 437, 2′-chloro-N-(6-((2S,6R)-2,6-dimethylmorpholino)thiazolo [4,5-b]pyrazin-2-yl)-5′-methoxy-6-methyl-[4,4′-bipyridine]-3-carboxamide] | 1 to 15 nM
COc1cnc(Cl)cc1-c1cc(C)ncc1C(=O)Nc1nc2ncc(N3CC[C@@H](OC)[C@H](F)C3)nc2s1 [Example 456, 2′-chloro-N-(6-((3R,4R)-3-fluoro-4-methoxypiperidin-1-yl)thiazolo[4,5-b]pyrazin-2-yl)-5′-methoxy-6-methyl-[4,4′-bipyridine]-3-carboxamide] | 1 to 15 nM
COc1cnc(Cl)cc1-c1cc(C)ncc1C(=O)Nc1nc2ncc(N3CCC(N(C)C)CC3)nc2s1 [Example 469, 2′-chloro-N-(6-(4-(dimethylamino)piperidin-1-yl)thiazolo[4,5-b]pyrazin-2-yl)-5′-methoxy-6-methyl-[4,4′-bipyridine]-3-carboxamide] | 1 to 15 nM
COc1cnc(Cl)cc1-c1cc(Oc2cc(N)cc(Cl)c2)ncc1C(=O)Nc1nn2cc(C3CC3)nc2s1 [Example 493, 6-(3-amino-5-chlorophenoxy)-2′-chloro-N-(6-cyclopropylimidazo[2,1-b][1,3,4]thiadiazol-2-yl)-5′-methoxy-[4,4′-bipyridine]-3-carboxamide] | 50 to 150 nM
COc1cnc(Cl)cc1-c1cc(Oc2cccc(NC(=O)OC(C)(C)C)c2)ncc1C(=O)Nc1nn2cc(C3CC3)nc2s1 [Example 495, tert-butyl (3-((2′-chloro-5-((6-cyclopropylimidazo[2,1-b][1,3,4]thiadiazol-2-yl)carbamoyl)-5′-methoxy-[4,4′-bipyridin]-2-yl)oxy)phenyl)carbamate] | 150 to 900 nM
COc1cnc(Cl)cc1-c1cc(C)ncc1C(=O)Nc1nc2ncc(N3CC[C@@H](CO)C3)nc2s1 [Example 501, (R)-2′-chloro-N-(6-(3-(hydroxymethyl)pyrrolidin-1-yl)thiazolo[4,5-b]pyrazin-2-yl)-5′-methoxy-6-methyl-[4,4′-bipyridine]-3-carboxamide] | 1 to 15 nM
COc1cnc(Cl)cc1-c1cc(C)ncc1C(=O)Nc1nc2ncc(N3CC(O)C3)nc2s1 [Example 503, 2′-chloro-N-(6-(3-hydroxyazetidin-1-yl)thiazolo[4,5-b]pyrazin-2-yl)-5′-methoxy-6-methyl-[4,4′-bipyridine]-3-carboxamide] | 1 to 15 nM
